Assay results published in ChEMBL document CHEMBL3885881, “DrugMatrix”.

Organism: Rattus norvegicus
Assay: DrugMatrix - Regimen: Daily Repeat
Type: toxicity, organism-based, Sprague-Dawley
Design: regimen Daily Repeat, gender Male, age 6-8 weeks
Conditions: in vivo, sc, route subcutaneous, […]; for ABSOLUTE BASOPHIL / ABSOLUTE EOSINOPHIL / ABSOLUTE LYMPHOCYTE / ABSOLUTE MONOCYTE / ABSOLUTE SEGMENTED NEUTROPHIL / BASOPHIL / EOSINOPHIL / ERYTHROCYTE COUNT / HEMATOCRIT / HEMOGLOBIN / LEUKOCYTE COUNT / LYMPHOCYTE / MEAN CORPUSCULAR HEMOGLOBIN / MEAN CORPUSCULAR VOLUME / MONOCYTE / NEUTROPHIL / NUCLEATED RED BLOOD CELLS / PLATELET COUNT: tissue Blood; for ALANINE AMINOTRANSFERASE / ALBUMIN / ALKALINE PHOSPHATASE / ASPARTATE AMINOTRANSFERASE / BLOOD UREA NITROGEN / CARBON DIOXIDE / CHLORIDE / CHOLESTEROL / CREATINE PHOSPHOKINASE / CREATININE / GLUCOSE / LACTATE DEHYDROGENASE / LIPASE / PHOSPHORUS / POTASSIUM / SODIUM / TOTAL BILIRUBIN / TOTAL PROTEIN / URIC ACID: tissue Plasma
[1] = 50 mg/kg, 120 h, dose level Low, time 5 day
[2] = 450 mg/kg, 72 h, dose level M2, time 3 day
[3] = 450 mg/kg, 120 h, dose level M2, time 5 day

Structure (SMILES): CCCCCCCCc1ccc(O)cc1 [4-OCTYLPHENOL]
- ABSOLUTE BASOPHIL [1]: 0 CELLS/uL
- ABSOLUTE EOSINOPHIL [1]: 65.33 CELLS/uL
- ABSOLUTE LYMPHOCYTE [1]: 9619.33 CELLS/uL
- ABSOLUTE MONOCYTE [1]: 226 CELLS/uL
- ABSOLUTE SEGMENTED NEUTROPHIL [1]: 589.33 CELLS/uL
- BASOPHIL [1]: 0%
- EOSINOPHIL [1]: 0.67%
- ERYTHROCYTE COUNT [1]: 5.5 x10E6/uL
- HEMATOCRIT [1]: 35.3%
- HEMOGLOBIN [1]: 13.8 G/DL
- LEUKOCYTE COUNT [1]: 10.5 x10E3/uL
- LYMPHOCYTE [1]: 91.33%
- MEAN CORPUSCULAR HEMOGLOBIN [1]: 25.17 pg
- MEAN CORPUSCULAR VOLUME [1]: 64.33 fL
- MONOCYTE [1]: 2.33%
- NEUTROPHIL [1]: 5.67%
- NUCLEATED RED BLOOD CELLS [1]: 0 /100WBC
- PLATELET COUNT [1]: 1190 x10E3/uL
- ALANINE AMINOTRANSFERASE [1]: 45.33 u/L
- ALBUMIN [1]: 3.2 G/DL
- ALKALINE PHOSPHATASE [1]: 276.67 u/L
- ASPARTATE AMINOTRANSFERASE [1]: 80 u/L
- BLOOD UREA NITROGEN [1]: 15 mg/dL
- CARBON DIOXIDE [1]: 29.67 mmol/L
- CHLORIDE [1]: 100 MEQ/L
- CHOLESTEROL [1]: 78 mg/dL
- CREATINE PHOSPHOKINASE [1]: 339.67 u/L
- CREATININE [1]: 0.16 mg/dL
- GLUCOSE [1]: 161.33 mg/dL
- LACTATE DEHYDROGENASE [1]: 367 u/L
- LIPASE [1]: 9 u/L
- PHOSPHORUS [1]: 12.2 mg/dL
- POTASSIUM [1]: 6.42 MEQ/L
- SODIUM [1]: 141.23 MEQ/L
- TOTAL BILIRUBIN [1]: 0.1 mg/dL
- TOTAL PROTEIN [1]: 5.57 G/DL
- URIC ACID [1]: 1.5 mg/dL
- ABSOLUTE BASOPHIL [2]: 0 CELLS/uL
- ABSOLUTE EOSINOPHIL [2]: 58 CELLS/uL
- ABSOLUTE LYMPHOCYTE [2]: 8257.67 CELLS/uL
- ABSOLUTE MONOCYTE [2]: 28.33 CELLS/uL
- ABSOLUTE SEGMENTED NEUTROPHIL [2]: 256 CELLS/uL
- BASOPHIL [2]: 0%
- EOSINOPHIL [2]: 0.67%
- ERYTHROCYTE COUNT [2]: 5.23 x10E6/uL
- HEMATOCRIT [2]: 32.2%
- HEMOGLOBIN [2]: 12.73 G/DL
- LEUKOCYTE COUNT [2]: 8.6 x10E3/uL
- LYMPHOCYTE [2]: 96%
- MEAN CORPUSCULAR HEMOGLOBIN [2]: 24.37 pg
- MEAN CORPUSCULAR VOLUME [2]: 61.63 fL
- MONOCYTE [2]: 0.33%
- NEUTROPHIL [2]: 3%
- NUCLEATED RED BLOOD CELLS [2]: 0 /100WBC
- PLATELET COUNT [2]: 1100 x10E3/uL
- ALANINE AMINOTRANSFERASE [2]: 61 u/L
- ALBUMIN [2]: 3.07 G/DL
- ALKALINE PHOSPHATASE [2]: 305.67 u/L
- ASPARTATE AMINOTRANSFERASE [2]: 93.67 u/L
- BLOOD UREA NITROGEN [2]: 9.67 mg/dL
- CARBON DIOXIDE [2]: 24 mmol/L
- CHLORIDE [2]: 94 MEQ/L
- CHOLESTEROL [2]: 75.33 mg/dL
- CREATINE PHOSPHOKINASE [2]: 340.33 u/L
- CREATININE [2]: 0.3 mg/dL
- GLUCOSE [2]: 117.67 mg/dL
- LACTATE DEHYDROGENASE [2]: 409.67 u/L
- LIPASE [2]: 9 u/L
- PHOSPHORUS [2]: 10.37 mg/dL
- POTASSIUM [2]: 5.55 MEQ/L
- SODIUM [2]: 137.75 MEQ/L
- TOTAL BILIRUBIN [2]: 0.1 mg/dL
- TOTAL PROTEIN [2]: 5.1 G/DL
- URIC ACID [2]: 0.63 mg/dL
- ABSOLUTE BASOPHIL [3]: 0 CELLS/uL
- ABSOLUTE EOSINOPHIL [3]: 224.33 CELLS/uL
- ABSOLUTE LYMPHOCYTE [3]: 13520.67 CELLS/uL
- ABSOLUTE MONOCYTE [3]: 303.33 CELLS/uL
- ABSOLUTE SEGMENTED NEUTROPHIL [3]: 3318.33 CELLS/uL
- BASOPHIL [3]: 0%
- EOSINOPHIL [3]: 1.33%
- ERYTHROCYTE COUNT [3]: 5.94 x10E6/uL
- HEMATOCRIT [3]: 36.27%
- HEMOGLOBIN [3]: 14.17 G/DL
- LEUKOCYTE COUNT [3]: 17.37 x10E3/uL
- LYMPHOCYTE [3]: 78%
- MEAN CORPUSCULAR HEMOGLOBIN [3]: 23.97 pg
- MEAN CORPUSCULAR VOLUME [3]: 61.27 fL
- MONOCYTE [3]: 1.67%
- NEUTROPHIL [3]: 19%
- NUCLEATED RED BLOOD CELLS [3]: 0 /100WBC
- PLATELET COUNT [3]: 1864.67 x10E3/uL
- ALANINE AMINOTRANSFERASE [3]: 43.33 u/L
- ALBUMIN [3]: 3.17 G/DL
- ALKALINE PHOSPHATASE [3]: 326.67 u/L
- ASPARTATE AMINOTRANSFERASE [3]: 82.67 u/L
- BLOOD UREA NITROGEN [3]: 14 mg/dL
- CARBON DIOXIDE [3]: 25.33 mmol/L
- CHLORIDE [3]: 102.67 MEQ/L
- CHOLESTEROL [3]: 71.67 mg/dL
- CREATINE PHOSPHOKINASE [3]: 343 u/L
- CREATININE [3]: 0.19 mg/dL
- GLUCOSE [3]: 162.33 mg/dL
- LACTATE DEHYDROGENASE [3]: 384.67 u/L
- LIPASE [3]: 9.67 u/L
- PHOSPHORUS [3]: 12.93 mg/dL
- POTASSIUM [3]: 7.17 MEQ/L
- SODIUM [3]: 141.23 MEQ/L
- TOTAL BILIRUBIN [3]: 0.13 mg/dL
- TOTAL PROTEIN [3]: 5.4 G/DL
- URIC ACID [3]: 2.67 mg/dL
